In assay [1] the target is T1, Human PDGFRα, cytoplasmic domain (GST-PDGFRα) (Homo sapiens, UniProt P16234).
T1 construct: made in house
Briefly: Human PDGFRα biochemical inhibition assay (off-chip Mobility Shift Assay).

Assay [2] has as its target T2, Human PDGFRβ, cytoplasmic domain (GST-PDGFRβ) (Homo sapiens, UniProt P09619).
T2 construct: made in house
Briefly: Human PDGFRβ biochemical inhibition assay (off-chip Mobility Shift Assay). As to the method: Human PDGFRβ Biochemical Inhibition Assay
The compounds described herein were tested for the ability to inhibit activity of PDGFRβ which was achieved via use of an off-chip Mobility Shift Assay (MSA). Human PDGFRβ, cytoplasmic domain [557-1106 (end) amino acids of accession number NP_002600.1 (SEQ ID NO: 3)] was expressed as N-terminal GST-fusion protein (88 kDa) using baculovirus expression system (SEQ ID NO: 4). GST-PDGFRβ was purified by using glutathione sepharose chromatography. Test compounds were dissolved in and diluted with dimethylsulfoxide (DMSO) to achieve 1 mM concentration. Then the solution was further diluted 25-fold with assay buffer to make the final test compound solution. The reference compound, Staurosporine, used as the assay positive control was prepared similarly. The 4× compound solution/substrate (CSKtide, 1000 nM)/ATP (Km ATP)/Mg Metal (5 mM) was prepared with kit buffer (20 mM HEPES, 0.01% Triton X-100, 5 mM DTT, pH 7.5), and 2× kinase solution was prepared with assay buffer (20 mM HEPES, 0.01% Triton X-100, 1 mM DTT, pH 7.5). The 5 μL of 4× compound solution, […] of 4× Substrate/ATP/Metal solution, and […] of 2× kinase solution were mixed and incubated in a well of polypropylene 384 well microplate for 1 hour at room temperature. […] of Termination Buffer (QuickScout Screening Assist MSA; Carna Biosciences) was added to the well. The reaction mixture was applied to LabChip™ system (Perkin Elmer), and the product and substrate peptide peaks were separated and quantitated. The kinase reaction was evaluated by the product ratio calculated from peak heights of product(P) and substrate(S) peptides (P/(P+S)). The readout value of reaction control (complete reaction mixture) was set as a 0% inhibition, and the readout value of background (Enzyme(−)) was set as a 100% inhibition, then the percent inhibition of each test solution was calculated.
With respect to PDGFRβ activity: “+++” denotes an IC50 of less than 300 nM; “++” denotes an IC50 of from 300 nM to less than 1000 nM; and “+” denotes an IC50 of 1000 nM or more.

In US20230102554A1 (GB002, INC., priority 2019, published 2023) one finds IC50 data, which are given here for 24 compounds.

The term IC50 denotes the midpoint of a concentration-inhibition curve.

T2 sequence (P09619 with tags, fused parts or gaps): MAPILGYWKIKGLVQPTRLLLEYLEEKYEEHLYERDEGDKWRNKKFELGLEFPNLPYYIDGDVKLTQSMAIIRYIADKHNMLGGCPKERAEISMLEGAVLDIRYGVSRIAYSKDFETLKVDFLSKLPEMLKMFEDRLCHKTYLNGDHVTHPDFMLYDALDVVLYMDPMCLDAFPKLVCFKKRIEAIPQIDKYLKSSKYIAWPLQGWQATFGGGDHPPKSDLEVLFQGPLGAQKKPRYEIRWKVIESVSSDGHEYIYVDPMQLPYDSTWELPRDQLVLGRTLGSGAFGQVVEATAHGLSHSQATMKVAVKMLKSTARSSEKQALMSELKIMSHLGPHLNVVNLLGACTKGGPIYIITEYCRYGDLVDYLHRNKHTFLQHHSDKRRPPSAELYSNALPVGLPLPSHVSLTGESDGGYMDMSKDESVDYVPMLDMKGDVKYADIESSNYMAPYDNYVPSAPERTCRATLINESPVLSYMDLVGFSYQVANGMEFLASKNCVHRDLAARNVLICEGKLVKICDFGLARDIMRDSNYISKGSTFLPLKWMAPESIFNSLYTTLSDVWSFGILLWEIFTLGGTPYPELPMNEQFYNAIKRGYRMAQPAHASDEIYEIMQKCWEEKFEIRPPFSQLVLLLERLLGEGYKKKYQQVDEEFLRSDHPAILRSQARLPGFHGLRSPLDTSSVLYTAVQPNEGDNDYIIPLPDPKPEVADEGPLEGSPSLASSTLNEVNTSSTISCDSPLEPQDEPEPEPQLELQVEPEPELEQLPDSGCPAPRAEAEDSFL
T1 sequence (P16234 550-1089 T674I): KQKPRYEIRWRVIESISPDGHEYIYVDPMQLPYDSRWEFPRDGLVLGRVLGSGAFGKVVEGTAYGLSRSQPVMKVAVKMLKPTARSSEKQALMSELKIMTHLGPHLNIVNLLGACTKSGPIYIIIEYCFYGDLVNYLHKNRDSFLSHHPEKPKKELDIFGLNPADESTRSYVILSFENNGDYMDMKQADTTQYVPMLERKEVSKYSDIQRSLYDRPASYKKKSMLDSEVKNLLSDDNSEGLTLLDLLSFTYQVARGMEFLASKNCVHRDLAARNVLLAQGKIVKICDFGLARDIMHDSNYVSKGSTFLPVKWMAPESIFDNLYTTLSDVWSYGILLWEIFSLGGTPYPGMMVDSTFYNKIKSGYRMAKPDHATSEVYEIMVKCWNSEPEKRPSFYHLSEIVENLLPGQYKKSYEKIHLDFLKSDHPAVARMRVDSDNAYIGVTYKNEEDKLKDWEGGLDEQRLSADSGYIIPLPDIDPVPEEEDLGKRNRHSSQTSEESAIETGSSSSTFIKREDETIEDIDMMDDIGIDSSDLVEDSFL

Regarding `CCn1cc2ncc(N[C@@H](C)c3cccc(NC(=O)c4ccc(CN5CC6(COC6)C5)c(Cl)c4)c3)nc2n1` [Compound 415, (S)-4-((2-oxa-6-azaspiro[3.3]heptan-6-yl)methyl)-3-chloro-N-(3-(1-((2-ethyl-2H-pyrazolo[3,4-b]pyrazin-6-yl)amino)ethyl)phenyl)benzamide], the IC50 in assay [1] and in assay [2] was less than 300 nM throughout.
In the case of `CCn1cc2ncc(N[C@@H](C)c3cccc(NC(=O)c4ccc(N5CCCC5)nc4)c3)nc2n1` [Compound 375, (S)-N-(3-(1-((2-ethyl-2H-pyrazolo[3,4-b]pyrazin-6-yl)amino)ethyl)phenyl)-6-(pyrrolidin-1-yl)nicotinamide], the IC50 was less than 300 nM in assay [1] and 300 to 1000 nM in assay [2].
In the same order, the values of `Cc1cncc(C(=O)Nc2cccc([C@H](C)Nc3cnc4cc(C)sc4n3)c2)c1` [Compound 19, (S)-5-methyl-N-(3-(1-((6-methylthieno[2,3-b]pyrazin-3-yl)amino)ethyl)phenyl)nicotinamide] are less than 300 nM and less than 300 nM.
Take `CCn1cc2ncc(N[C@@H](C)c3cc(NC(=O)c4ccc(C(F)(F)F)nc4)ccc3C(F)(F)F)nc2n1` [Compound 459, (S)-N-(3-(1-((2-ethyl-2H-pyrazolo[3,4-b]pyrazin-6-yl)amino)ethyl)-4-(trifluoromethyl)phenyl)-6-(trifluoromethyl) nicotinamide]: the IC50 in assay [1] and in assay [2] was no less than 1000 nM in each case.
`CCn1cc2ncc(N[C@@H](C)c3cccc(NC(=O)Cc4ccc5c(n4)OCCC5)c3)nc2n1` [Compound 720, (S)-2-(3,4-dihydro-2H-pyrano[2,3-b]pyridin-7-yl)-N-(3-(1-((2-ethyl-2H-pyrazolo[3,4-b]pyrazin-6-yl)amino)ethyl)phenyl)acetamide]: the IC50 in assay [1] was less than 300 nM; in assay [2], no less than 1000 nM.
In the same order, the values of `CCn1cc2ncc(N[C@@H](C)c3cc(NC(=O)c4cnc(C(F)(F)F)s4)ccc3F)nc2n1` [Compound 308, (S)-N-(3-(1-((2-ethyl-2H-pyrazolo[3,4-b]pyrazin-6-yl)amino)ethyl)-4-fluorophenyl)-2-(trifluoromethyl)thiazole-5-carboxamide] are less than 300 nM and less than 300 nM.
For `CCn1cc2ncc(N[C@@H](C)c3cccc(NC(=O)c4cnc(N5CCOCC5)c(C)c4)c3)nc2n1` [Compound 358, (S)-N-(3-(1-((2-ethyl-2H-pyrazolo[3,4-b]pyrazin-6-yl)amino)ethyl)phenyl)-5-methyl-6-morpholinonicotinamide], the IC50 in assay [1] and in assay [2] was less than 300 nM each time.
`CCn1cc2ncc(N[C@@H](C)c3cccc(NC(=O)c4cnc(C5CCCC5)s4)c3)nc2n1` [Compound 398, (S)-2-cyclopentyl-N-(3-(1-((2-ethyl-2H-pyrazolo[3,4-b]pyrazin-6-yl)amino)ethyl)phenyl)thiazole-5-carboxamide]: the IC50 in assay [1] and in assay [2] was less than 300 nM in each case.
On to `CSc1ccc(C(=O)Nc2cccc([C@H](C)Nc3cnc4cnn(C)c4n3)c2)cc1SC` [Compound 269, (S)-N-(3-(1-((1-methyl-1H-pyrazolo[3,4-b]pyrazin-6-yl)amino)ethyl)phenyl)-3,4-bis(methylthio)benzamide], for which the IC50 in assay [1] and in assay [2] was less than 300 nM throughout.
For the compound `Cc1cc(C(=O)Nc2cccc([C@H](C)Nc3cnc4cnn(C)c4n3)c2)cnc1OCC(C)C` [Compound 229, (S)-6-isobutoxy-5-methyl-N-(3-(1-((1-methyl-1H-pyrazolo[3,4-b]pyrazin-6-yl)amino)ethyl)phenyl)nicotinamide], the IC50 in assay [1] and in assay [2] was less than 300 nM throughout.
As for `C[C@H](Nc1cnc2cnn(C)c2n1)c1cccc(NC(=O)c2cnc3c(ccn3C)c2)c1` [Compound 169, (S)-1-methyl-N-(3-(1-((1-methyl-1H-pyrazolo[3,4-b]pyrazin-6-yl)amino)ethyl)phenyl)-1H-pyrrolo[2,3-b] pyridine-5-carboxamide], the IC50 in assay [1] and in assay [2] was less than 300 nM throughout.
With `CCn1cc2ncc(N[C@@H](C)c3cccc(NC(=O)c4cnc(C(F)(F)F)s4)c3)nc2n1` [Compound 295, (S)-N-(3-(1-((2-ethyl-2H-pyrazolo[3,4-b]pyrazin-6-yl)amino)ethyl)phenyl)-2-(trifluoromethyl)thiazole-5-carboxamide], the IC50 in assay [1] and in assay [2] was less than 300 nM throughout.
Take `CCn1cc2ncc(N[C@@H](C)c3cc(NC(=O)Cc4cncc(Cl)c4)ccc3F)nc2n1` [Compound 663, (S)-2-(5-chloropyridin-3-yl)-N-(3-(1-((2-ethyl-2H-pyrazolo[3,4-b]pyrazin-6-yl)amino)ethyl)-4-fluorophenyl)acetamide]: the IC50 is less than 300 nM in assay [1] and 300 to 1000 nM in assay [2].
Turning to `CCn1nc(C(C)C)cc1C(=O)Nc1cccc([C@H](C)Nc2cnc3cnn(C)c3n2)c1` [Compound 167, (S)-1-ethyl-3-isopropyl-N-(3-(1-((1-methyl-1H-pyrazolo[3,4-b]pyrazin-6-yl)amino)ethyl)phenyl)-1H-pyrazole-5-carboxamide], the IC50 in assay [1] and in assay [2] was less than 300 nM each time.
As for `CCn1cc2ncc(N[C@@H](C)c3cc(NC(=O)c4ccc(N5CCN(C)CC5)c(Cl)c4)ccc3F)nc2n1` [Compound 413, (S)-3-chloro-N-(3-(1-((2-ethyl-2H-pyrazolo[3,4-b]pyrazin-6-yl)amino)ethyl)-4-fluorophenyl)-4-(4-methylpiperazin-1-yl) benzamide], the IC50 in assay [1] and in assay [2] was less than 300 nM throughout.
As for `CCn1cc2ncc(N[C@@H](C)c3cccc(NC(=O)Cc4cccc(C(F)(F)F)n4)c3)nc2n1` [Compound 642, (S)-N-(3-(1-((2-ethyl-2H-pyrazolo[3,4-b]pyrazin-6-yl)amino)ethyl)phenyl)-2-(6-(trifluoromethyl)pyridin-2-yl) acetamide], the values for the IC50 in assay [1] and in assay [2] were less than 300 nM and 300 to 1000 nM, respectively.
In the same order, the values of `Cc1cncc(C(=O)Nc2cc(F)cc(C(C)Nc3cnc4cnn(C)c4n3)c2)c1` (stereo not drawn) [Compound 170, N-(3-fluoro-5-(1-((1-methyl-1H-pyrazolo[3,4-b]pyrazin-6-yl)amino)ethyl)phenyl)-5-methylnicotinamide] are less than 300 nM and 300 to 1000 nM.
For `CCn1cc2ncc(N[C@@H](C)c3cccc(NC(=O)Cc4cc(C)c(C)cn4)c3)nc2n1` [Compound 693, (S)-2-(4,5-dimethylpyridin-2-yl)-N-(3-(1-((2-ethyl-2H-pyrazolo[3,4-b]pyrazin-6-yl)amino)ethyl)phenyl)acetamide], the values for the IC50 in assay [1] and in assay [2] were less than 300 nM and no less than 1000 nM, respectively.
In the case of `Cc1cncc(C(=O)Nc2ccc(F)c([C@H](C)Nc3cnc4cnn(C)c4n3)c2)c1` [Compound 172], the IC50 in assay [1] and in assay [2] was less than 300 nM throughout.
On to `Cc1cncc(C(=O)Nc2cccc([C@H](C)Nc3cnc4cccc(F)c4c3)c2)c1` [Compound 29, (S)-N-(3-(1-((5-fluoroquinolin-3-yl)amino)ethyl)phenyl)-5-methylnicotinamide], for which the IC50 in assay [1] and in assay [2] was less than 300 nM each time.
In the case of `CCn1cc2ncc(N[C@@H](C)c3cccc(NC(=O)c4ccc5c(c4)CCNC5)c3)nc2n1` [Compound 66, (S)-N-(3-(1-((2-ethyl-2H-pyrazolo[3,4-b]pyrazin-6-yl)amino)ethyl)phenyl)-1,2,3,4-tetrahydroisoquinoline-6-carboxamide], the IC50 was less than 300 nM in assay [1] and 300 to 1000 nM in assay [2].
As to `CCn1cc2ncc(N[C@@H](C)c3cccc(NC(=O)c4cnc5cnn(C)c5c4)c3)nc2n1` [Compound 62, (S)-N-(3-(1-((2-ethyl-2H-pyrazolo[3,4-b]pyrazin-6-yl)amino)ethyl)phenyl)-1-methyl-1H-pyrazolo[4,3-b]pyridine-6-carboxamide], the IC50 in assay [1] was 300 to 1000 nM; in assay [2] it was no less than 1000 nM.
Regarding `CCn1cc2ncc(N[C@@H](C)c3cccc(NC(=O)c4ccc(OC)nc4)c3)nc2n1` [Compound 285, (S)-N-(3-(1-((2-ethyl-2H-pyrazolo[3,4-b]pyrazin-6-yl)amino)ethyl)phenyl)-6-methoxynicotinamide], the IC50 in assay [1] was 300 to 1000 nM; in assay [2], no less than 1000 nM.
In the same order, the values of `Cc1cncc(C(=O)Nc2cccc([C@H](C)Nc3cnc4ccc(C(F)(F)F)cc4n3)c2)c1` [Compound 34, (S)-5-methyl-N-(3-(1-((7-(trifluoromethyl)quinoxalin-2-yl)amino)ethyl)phenyl) nicotinamide] are less than 300 nM and 300 to 1000 nM.
